Data published in ChEMBL document CHEMBL3763031, “Design, synthesis and biological evaluation of monobactams as antibacterial agents against gram-negative bacteria” (2016).
In brackets after ≈: the same amount, converted by molar mass.

Key:
Salmonella typhi = assay: Antibacterial activity against beta-lactamase producing Salmonella typhi H901 after 18 hrs by agar dilution assay; assay type: functional, Salmonella enterica subsp. enterica serovar Typhi; conditions: Salmonella enterica, H901, 18 h
Proteus mirabilis = assay: Antibacterial activity against beta-lactamase producing Proteus mirabilis 09-1 after 18 hrs by agar dilution assay; assay type: functional; conditions: 09-1, 18 h
Proteus vulgaris = assay: Antibacterial activity against beta-lactamase producing Proteus vulgaris 29905 after 18 hrs by agar dilution assay; assay type: functional; conditions: Proteus vulgaris, 29905, 18 h
Providencia rettgeri = assay: Antibacterial activity against Providencia rettgeri 31052 after 18 hrs by agar dilution assay; assay type: functional; conditions: Providencia rettgeri, 31052, 18 h
Morganella morganii = assay: Antibacterial activity against beta-lactamase producing Morganella morganii 25830 after 18 hrs by agar dilution assay; assay type: functional; conditions: Morganella morganii, 25830, 18 h
Serratia marcescens = assay: Antibacterial activity against beta-lactamase producing Serratia marcescens 41002 after 18 hrs by agar dilution assay; assay type: functional; conditions: Serratia marcescens, 41002, 18 h
Klebsiella aerogenes = assay: Antibacterial activity against beta-lactamase producing Enterobacter aerogenes 45102 after 18 hrs by agar dilution assay; assay type: functional; conditions: Klebsiella aerogenes, 45102, 18 h
Enterobacter cloacae = assay: Antibacterial activity against beta-lactamase producing Enterobacter cloacae 45301 after 18 hrs by agar dilution assay; assay type: functional; conditions: Enterobacter cloacae, 45301, 18 h
Klebsiella pneumoniae [1] = assay: Antibacterial activity against ESBL negative Klebsiella pneumoniae 7 after 18 hrs by agar dilution assay; assay type: functional; conditions: Klebsiella pneumoniae, 7, 18 h
Klebsiella pneumoniae [2] = assay: Antibacterial activity against NDM-1 positive Klebsiella pneumoniae BAA-2146 after 18 hrs by agar dilution assay; assay type: functional; conditions: BAA-2146, 18 h
Klebsiella pneumoniae [3] = assay: Antibacterial activity against ESBL negative Klebsiella pneumoniae 09-8 after 18 hrs by agar dilution assay; assay type: functional; conditions: 09-8, 18 h
Pseudomonas aeruginosa [4] = assay: Antibacterial activity against BL positive Pseudomonas aeruginosa 09-14 after 18 hrs by agar dilution assay; assay type: functional; conditions: 09-14, 18 h
Pseudomonas aeruginosa [5] = assay: Antibacterial activity against BL positive Pseudomonas aeruginosa PAO1 after 18 hrs by agar dilution assay; assay type: functional; conditions: PAO1, 18 h
Pseudomonas aeruginosa [6] = assay: Antibacterial activity against BL positive Pseudomonas aeruginosa 27853 after 18 hrs by agar dilution assay; assay type: functional; conditions: Pseudomonas aeruginosa, 27853, 18 h
Klebsiella pneumoniae [7] = assay: Antibacterial activity against ESBL positive Klebsiella pneumoniae 09-25 after 18 hrs by agar dilution assay; assay type: functional; conditions: 09-25, 18 h
Klebsiella pneumoniae [8] = assay: Antibacterial activity against ESBL positive Klebsiella pneumoniae 700603 after 18 hrs by agar dilution assay; assay type: functional; conditions: Klebsiella pneumoniae, 700603, 18 h
Escherichia coli [9] = assay: Antibacterial activity against ESBL negative Escherichia coli 09-20 after 18 hrs by agar dilution assay; assay type: functional; conditions: 09-20, 18 h
Escherichia coli [10] = assay: Antibacterial activity against ESBL positive Escherichia coli 09-1 after 18 hrs by agar dilution assay; assay type: functional; conditions: 09-1, 18 h
Escherichia coli [11] = assay: Antibacterial activity against ESBL negative Escherichia coli 1515 after 18 hrs by agar dilution assay; assay type: functional; conditions: Escherichia coli, 1515, 18 h
Escherichia coli [12] = assay: Antibacterial activity against ESBL negative Escherichia coli 25922 after 18 hrs by agar dilution assay; assay type: functional; conditions: Escherichia coli, 25922, 18 h
Citrobacter freundii = assay: Antibacterial activity against beta-lactamase producing Citrobacter freundii 43864 after 18 hrs by agar dilution assay; assay type: functional; conditions: Citrobacter freundii, 43864, 18 h

| Structure (SMILES) | MIC (Salmonella typhi) | MIC (Proteus mirabilis) | MIC (Proteus vulgaris) | MIC (Providencia rettgeri) | MIC (Morganella morganii) | MIC (Serratia marcescens) | MIC (Klebsiella aerogenes) | MIC (Klebsiella pneumoniae [1]) | MIC (Klebsiella pneumoniae [2]) | MIC (Klebsiella pneumoniae [3]) | MIC (Pseudomonas aeruginosa [4]) | MIC (Pseudomonas aeruginosa [5]) | MIC (Pseudomonas aeruginosa [6]) | MIC (Klebsiella pneumoniae [7]) | MIC (Klebsiella pneumoniae [8]) | MIC (Escherichia coli [9]) | MIC (Escherichia coli [10]) | MIC (Escherichia coli [11]) | MIC (Escherichia coli [12]) | MIC (Citrobacter freundii) | further results |
| --- | --- | --- | --- | --- | --- | --- | --- | --- | --- | --- | --- | --- | --- | --- | --- | --- | --- | --- | --- | --- | --- |
| C[C@H]1[C@H](NC(=O)/C(=N\OCc2cn(C)nn2)c2csc(N)n2)C(=O)N1S(=O)(=O)O (relative stereo) | > 128 µg/mL | 1 µg/mL (≈ 2.25 µM) | 0.5 µg/mL (≈ 1.12 µM) | 0.125 µg/mL (≈ 0.281 µM) | 0.5 µg/mL (≈ 1.12 µM) | 2 µg/mL (≈ 4.5 µM) | 2 µg/mL (≈ 4.5 µM) | 1 µg/mL (≈ 2.25 µM) | > 128 µg/mL | > 128 µg/mL | > 128 µg/mL | > 128 µg/mL | > 128 µg/mL | > 128 µg/mL | > 128 µg/mL | > 128 µg/mL | 4 µg/mL (≈ 9 µM) | 4 µg/mL (≈ 9 µM) | 4 µg/mL (≈ 9 µM) | 4 µg/mL (≈ 9 µM) | MIC (Enterobacter cloacae): 1 µg/mL (≈ 2.25 µM) |
| CC1(C)[C@H](NC(=O)/C(=N\OCc2ccc(C(=O)O)cc2)c2csc(N)n2)C(=O)N1S(=O)(=O)O | 32 µg/mL (≈ 64.3 µM) | 8 µg/mL (≈ 16.1 µM) | 0.06 µg/mL (≈ 0.121 µM) | ≤ 0.03 µg/mL | > 64 µg/mL | 4 µg/mL (≈ 8.04 µM) | 8 µg/mL (≈ 16.1 µM) | 2 µg/mL (≈ 4.02 µM) | 32 µg/mL (≈ 64.3 µM) | 2 µg/mL (≈ 4.02 µM) | > 64 µg/mL | > 64 µg/mL | > 64 µg/mL | 8 µg/mL (≈ 16.1 µM) | > 64 µg/mL | 2 µg/mL (≈ 4.02 µM) | 4 µg/mL (≈ 8.04 µM) | 8 µg/mL (≈ 16.1 µM) | 4 µg/mL (≈ 8.04 µM) | 2 µg/mL (≈ 4.02 µM) | MIC (Enterobacter cloacae): 2 µg/mL (≈ 4.02 µM) |
| CC1(C)[C@H](NC(=O)/C(=N\OCc2cn(CC(=O)O)nn2)c2csc(N)n2)C(=O)N1S(=O)(=O)O | > 64 µg/mL | 2 µg/mL (≈ 3.98 µM) | 0.125 µg/mL (≈ 0.249 µM) | ≤ 0.03 µg/mL | > 64 µg/mL | 2 µg/mL (≈ 3.98 µM) | 4 µg/mL (≈ 7.96 µM) | 1 µg/mL (≈ 1.99 µM) | > 64 µg/mL | 1 µg/mL (≈ 1.99 µM) | > 64 µg/mL | > 64 µg/mL | > 64 µg/mL | 32 µg/mL (≈ 63.7 µM) | > 64 µg/mL | 8 µg/mL (≈ 15.9 µM) | 2 µg/mL (≈ 3.98 µM) | 32 µg/mL (≈ 63.7 µM) | 2 µg/mL (≈ 3.98 µM) | 2 µg/mL (≈ 3.98 µM) | MIC (Enterobacter cloacae): 1 µg/mL (≈ 1.99 µM) |
| CC1(C)[C@H](NC(=O)/C(=N\OCc2cn(CC3CC3)nn2)c2csc(N)n2)C(=O)N1S(=O)(=O)O | 64 µg/mL (≈ 128 µM) | > 64 µg/mL | 1 µg/mL (≈ 2.01 µM) | ≤ 0.03 µg/mL | > 64 µg/mL | 32 µg/mL (≈ 64.2 µM) | 32 µg/mL (≈ 64.2 µM) | 16 µg/mL (≈ 32.1 µM) | 64 µg/mL (≈ 128 µM) | 16 µg/mL (≈ 32.1 µM) | > 64 µg/mL | > 64 µg/mL | > 64 µg/mL | 32 µg/mL (≈ 64.2 µM) | > 64 µg/mL | 16 µg/mL (≈ 32.1 µM) | 16 µg/mL (≈ 32.1 µM) | 16 µg/mL (≈ 32.1 µM) | 16 µg/mL (≈ 32.1 µM) | 8 µg/mL (≈ 16 µM) | MIC (Enterobacter cloacae): 8 µg/mL (≈ 16 µM) |
| CC1(C)[C@H](NC(=O)/C(=N\OCc2ccccc2)c2csc(N)n2)C(=O)N1S(=O)(=O)O | > 64 µg/mL | > 64 µg/mL | > 64 µg/mL | > 64 µg/mL | > 64 µg/mL | > 64 µg/mL | > 64 µg/mL | > 64 µg/mL | > 64 µg/mL | > 64 µg/mL | > 64 µg/mL | > 64 µg/mL | > 64 µg/mL | > 64 µg/mL | > 64 µg/mL | > 64 µg/mL | > 64 µg/mL | > 64 µg/mL | > 64 µg/mL | > 64 µg/mL | MIC (Enterobacter cloacae): > 64 µg/mL |
| C[C@H]1[C@H](NC(=O)/C(=N\OC(C)(C)C(=O)O)c2csc(N)n2)C(=O)N1S(=O)(=O)O [AZTREONAM] | ≤ 0.03 µg/mL | ≤ 0.03 µg/mL | ≤ 0.03 µg/mL | ≤ 0.03 µg/mL | 0.125 µg/mL (≈ 0.287 µM) | 0.125 µg/mL (≈ 0.287 µM) | ≤ 0.03 µg/mL | ≤ 0.03 µg/mL | 256 µg/mL (≈ 588 µM) | 16 µg/mL (≈ 36.7 µM) | 4 µg/mL (≈ 9.19 µM) | 0.5 µg/mL (≈ 1.15 µM) | 2 µg/mL (≈ 4.59 µM) | 32 µg/mL (≈ 73.5 µM) | 32 µg/mL (≈ 73.5 µM) | > 256 µg/mL | 8 µg/mL (≈ 18.4 µM) | 0.125 µg/mL (≈ 0.287 µM) | 0.125 µg/mL (≈ 0.287 µM) | 0.125 µg/mL (≈ 0.287 µM) | – |
